One assay deals with mouse model of IBS. Kind of assay: Visceromotor reflex (VMR) response to colorectal distention (CRD) in a mouse model of IBS. The assay is classed as in vivo. The conditions noted are these: graded colorectal distention, KSL-W given intracolonically (FIG. 1), rifaximin FIG. 2. The method, then:
Mouse pups at postnatal day 10 will receive a […] enema infusion with 0.5% acetic acid or saline. The pup will be gently held by hand with head down. A poly-ethylene tubing (PE-10) connected to a 100 ul Hamilton syringe is insert through the rectum into the distal colon about 1.5 cm from the anus. 20 μl of 0.5% acetic acid or saline is infused slowly (about second). The pups are put back with dam and wean at 3 weeks old. The mice are allowed to grow into adulthood (8-12 weeks) when they are ready for test of hypersensitivity (increased pain to graded painful stimulus).
Visceromotor reflex (VMR) and Abdominal Withdrawal Reflex (AWR) response to colorectal distention (CRD) for assessing visceral pain sensitivity. The VMR is a reflex measured using an electromyographic (EMG) recording obtained from the external oblique muscle. […] Then, 30-45 min later, the VMR response to CRD is measured by EMG.
Procedure of electrodes implantation: Under a cocktail of Ketamine/Xylazine (80:8 mg/kg body weight) or 1-2% isoflurane. adult mice undergo surgery to implant abdominal electrodes. The depth of anesthesia will be assessed by pinching the toes for a toe pinch response (negative) every 15 minutes during the surgical procedure. […]
EMG response to CRD: EMG is recorded from two externalized electrodes implanted in the external oblique muscle by using CED 1401 plus and Spike 2 software. […]

The test system of a further assay is pathogenic bacteria. Nature of the assay: Selectivity of the antimicrobial peptide for pathogenic versus beneficial bacteria.
Assay [1] relates to microbial balance in the colon. Kind of assay: Effect on microbial balance in the colon. The conditions noted are these: FIG. 1 cited. The assay is classed as in vivo. The method, then: Using a novel comprehensive, high-density DNA microarray (PhyloChip) a phylogenetic analysis of the microbial community of the large bowel was performed. […] Even more striking was the dramatic change in the ratio of Firmicutes relative to Bacteroidetes, where “IBS” animals were enriched more with Bacteroidetes and also contained a different composition of species within this phylum.

In another assay the test system is oral microorganisms. The conditions noted are these: U.S. Pat. Nos. 7,494,980 and 8,778,889; cited from earlier work.
Assay [2] deals with biofilms that mimic supragingival or cariogenic plaque. The conditions noted are these: cited from earlier work.

“Also recorded” adds a separate entry of the source.

“NH2-Lys-Lys-Val-Val-Phe-Trp-Val-Lys-Phe-Lys-CO NH2 (H-KKVVFWVKFK-NH2) [KSL-W, L-tryptophan analog of KSL; L-lysine at position six replaced with L-tryptophan]”: the “pain behavior (VMR response to colorectal distention)” value in the assay on mouse model of IBS was “attenuates pain behavior”. For the same compound, the “selectivity against pathogenic versus beneficial bacteria” value in the assay with pathogenic bacteria was “works against pathogenic bacteria but spares beneficial ones; also recorded: selective against pathogenic bacteria but not beneficial bacteria”. Also, the “microbial balance in the colon” value in assay [1] is “resets the microbial balance in the colon”.
In the case of `CO[C@H]1/C=C/O[C@@]2(C)Oc3c(C)c(O)c4c(O)c(c5c(nc6cc(C)ccn65)c4c3C2=O)NC(=O)/C(C)=C\C=C\[C@H](C)[C@H](O)[C@@H](C)[C@@H](O)[C@@H](C)[C@H](OC(C)=O)[C@@H]1C` [rifaximin, reference compound], the “pain behavior (VMR response to colorectal distention)” value with mouse model of IBS is given as “attenuates pain behavior”.
As for “NH2-Lys-Lys-Val-Val-Phe-Lys-Val-Lys-Phe-Lys-CO NH2 (H-KKVVFKVKFK-NH2) [KSL, antimicrobial decapeptide]”, in the assay on oral microorganisms, the “antibacterial activity / inhibition of growth of oral microorganisms” value is “possess a broad range of antibacterial activity; also recorded: inhibiting the growth of various oral microorganisms”. The “prevention of biofilm formation” value in assay [2] is “effective in preventing the formation of biofilms that mimic supragingival or cariogenic plaque”.

These data come from patent publication US20240010678A1, “METHOD OF TREATMENT OF IRRITABLE BOWEL SYNDROME” (THE JOHNS HOPKINS UNIVERSITY, priority 2020, published 2024).
